Values of other authors as cited in patent US20130131091A1, “HARMFUL ORGANISM CONTROL AGENT” (priority 2010, published 2013).

What was measured:
[1] = system: Plutella xylostella L larvae
[2] = system: larvae of Helicoverpa zea

Measured: insecticidal activity

CC(=O)OCC1(C)C(OC(C)=O)CCC2(C)C1CC(OC(C)=O)C1(C)Oc3cc(-c4cccnc4)oc(=O)c3C(O)C21 (stereo not drawn) [pyripyropene A]
insecticidal activity: [1] | [2] | Tenebrio molitor L
